Laboratory results reported in US10851102B2, “Imidazole and triazole containing bicyclic compounds as JAK inhibitors” (THERAVANCE BIOPHARMA R&D IP, LLC, priority 2019, dated 2020).

Experiments:
Tyk2 = Tyk2 (Homo sapiens (Human), UniProt P29597); test: Biochemical JAK and Tyk2 kinase assays (LanthaScreen): Tyk2; settings: 1 h pre-incubation, ATP at Km; pIC50 converted to pKi by Cheng-Prusoff
Method: (§1) Assay 1: Biochemical JAK and Tyk2 Kinase Assays
(§2) A panel of four LanthaScreen JAK biochemical assays (JAK1, 2, 3 and Tyk2) were carried in a common kinase reaction buffer (50 mM HEPES, pH 7.5, 0.01% Brij-35, 10 mM MgCl2, and 1 mM EGTA). Recombinant GST-tagged JAK enzymes and a GFP-tagged STAT1 peptide substrate were obtained from Life Technologies.
(§3) Serially or discretely diluted compounds were pre-incubated with each of the four JAK enzymes and the substrate in white 384-well microplates (Corning) at ambient temperature for 1 h. ATP was subsequently added to initiate the kinase reactions in 10 μL total volume, with 1% DMSO. […] Kinase reactions were allowed to proceed for 1 hour at ambient temperature before a 10 μL preparation of EDTA (10 mM final concentration) and Tb-anti-pSTAT1 (pTyr701) antibody (Life Technologies, 2 nM final concentration) in TR-FRET dilution buffer (Life Technologies) was added. The plates were allowed to incubate at ambient temperature for 1 h before being read on the EnVision reader (Perkin Elmer). Emission ratio signals (520 nm/495 nm) were recorded and utilized to calculate the percent inhibition values based on DMSO and background controls.
(§4) For dose-response analysis, percent inhibition data were plotted vs. compound concentrations, and IC50 values were determined from a 4-parameter robust fit model with the Prism software (GraphPad Software). Results were expressed as pIC50 (negative logarithm of IC50) and subsequently converted to pKi (negative logarithm of dissociation constant, Ki) using the Cheng-Prusoff equation.

JAK2 = JAK2 (Homo sapiens (Human), UniProt O60674); test: Biochemical JAK and Tyk2 kinase assays (LanthaScreen): JAK2; settings: 1 h pre-incubation, ATP at Km, pIC50 converted to pKi by Cheng-Prusoff
Chain of JAK2 (O60674 whole entry): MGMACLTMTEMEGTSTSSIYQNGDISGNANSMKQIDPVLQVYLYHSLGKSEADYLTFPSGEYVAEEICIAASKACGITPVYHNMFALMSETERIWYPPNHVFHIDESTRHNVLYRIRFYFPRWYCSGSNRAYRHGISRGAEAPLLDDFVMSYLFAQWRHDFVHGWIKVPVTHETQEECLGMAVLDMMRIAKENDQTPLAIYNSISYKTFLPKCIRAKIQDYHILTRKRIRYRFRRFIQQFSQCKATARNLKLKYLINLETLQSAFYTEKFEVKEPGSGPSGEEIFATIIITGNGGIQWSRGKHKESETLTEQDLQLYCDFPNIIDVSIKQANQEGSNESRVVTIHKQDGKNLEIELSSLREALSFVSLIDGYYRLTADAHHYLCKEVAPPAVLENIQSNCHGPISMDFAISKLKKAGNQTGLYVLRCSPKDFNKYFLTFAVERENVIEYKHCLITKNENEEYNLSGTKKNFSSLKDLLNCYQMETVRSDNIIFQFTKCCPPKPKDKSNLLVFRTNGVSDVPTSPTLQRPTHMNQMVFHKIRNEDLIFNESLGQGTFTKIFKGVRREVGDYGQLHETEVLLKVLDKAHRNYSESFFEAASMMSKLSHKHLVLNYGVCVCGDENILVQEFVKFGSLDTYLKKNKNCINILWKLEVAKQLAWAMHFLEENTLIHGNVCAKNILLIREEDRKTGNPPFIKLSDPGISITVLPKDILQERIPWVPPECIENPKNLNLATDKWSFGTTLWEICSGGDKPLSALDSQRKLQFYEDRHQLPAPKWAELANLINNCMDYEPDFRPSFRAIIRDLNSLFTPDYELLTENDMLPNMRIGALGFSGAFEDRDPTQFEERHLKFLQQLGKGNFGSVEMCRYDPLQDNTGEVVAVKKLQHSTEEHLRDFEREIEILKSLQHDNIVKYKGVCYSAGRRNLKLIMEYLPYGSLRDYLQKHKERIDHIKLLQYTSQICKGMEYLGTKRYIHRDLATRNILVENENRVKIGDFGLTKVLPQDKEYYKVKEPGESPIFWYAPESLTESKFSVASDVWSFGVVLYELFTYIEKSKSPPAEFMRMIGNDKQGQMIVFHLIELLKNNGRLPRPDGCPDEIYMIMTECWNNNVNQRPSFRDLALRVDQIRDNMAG
Method: as §1, §2, §3, §4

[1] = test system: IL-2 stimulated pSTAT5 in Tall-1 T cells (JAK3); test: Cellular JAK3 potency assay: inhibition of IL-2 stimulated pSTAT5 in Tall-1 T cells; format: cell-based; settings: IL-2 300 ng/ml, pSTAT5 AlphaLisa, Tall-1 human T cell line; read-out: Tall-1 (pIC50) (converted)
Method: Assay 2: Cellular JAK3 Potency Assay: Inhibition of IL-2 Stimulated pSTAT5 in Tall-1 T Cells
The potency of test compounds for inhibition of interleukin-2 (IL-2) stimulated STATS phosphorylation was measured in the Tall-1 human T cell line (DSMZ) using AlphaLisa. Because IL-2 signals through JAK3, this assay provides a measure of JAK3 cellular potency.
(§5) Phosphorylated STATS was measured via the AlphaLISA SureFire Ultra pSTAT5 (Tyr694/699) kit (PerkinElmer).
Human T cells from the Tall-1 cell line were cultured in a 37° C., 5% CO2 humidified incubator in RPMI (Life Technologies) supplemented with 15% Heat Inactivated Fetal Bovine Serum (FBS, Life Technologies), 2 mM Glutamax (Life Technologies), 25 mM HEPES (Life Technologies) and 1× Pen/Strep (Life Technologies). Compounds were serially diluted in DMSO and dispensed acoustically to empty wells. Assay media (phenol red-free DMEM (Life Technologies) supplemented with 10% FBS (ATCC)) was dispensed (4 μL/well) and plates shaken at 900 rpm for 10 mins. Cells were seeded at 45,000 cells/well in assay media (4 μL/well), and incubated at 37° C., 5% CO2 for 1 hour, followed by the addition of IL-2 (R&D Systems; final concentration 300 ng/ml) in pre-warmed assay media ([…]) for 30 minutes. After cytokine stimulation, cells were lysed with 6 ul of 3× AlphaLisa Lysis Buffer (PerkinElmer) containing 1× PhosStop and Complete tablets (Roche). The lysate was shaken at 900 rpm for 10 minutes at room temperature (RT). Phosphorylated STATS was measured via the pSTAT5 AlphaLisa kit (PerkinElmer). Freshly prepared acceptor bead mixture was dispensed onto lysate (5 μL) under green filtered <100 lux light. Plates were shaken at 900 rpm for 2 mins, briefly spun down, and incubated for 2 hrs at RT in the dark. Donor beads were dispensed (5 μL) under green filtered <100 lux light. Plates were shaken at 900 rpm for 2 minutes, briefly spun down, and incubated overnight at RT in the dark. Luminescence was measured with excitation at 689 nm and emission at 570 nm using an EnVision plate reader (PerkinElmer) under green filtered <100 lux light.
(§6) To determine the inhibitory potency of test compounds in response to IL-2, the average emission intensity of beads bound to pSTAT5 was measured in a human T cell line. IC50 values were determined from analysis of the inhibition curves of signal intensity versus compound concentration. Data are expressed as pIC50 (negative decadic logarithm IC50) values (mean±standard deviation).

JAK1 = JAK1 (Homo sapiens (Human), UniProt P23458); test: Biochemical JAK and Tyk2 kinase assays (LanthaScreen): JAK1; settings: 1 h pre-incubation, ATP at Km; pIC50 converted to pKi by Cheng-Prusoff
Chain of JAK1 (P23458 whole entry): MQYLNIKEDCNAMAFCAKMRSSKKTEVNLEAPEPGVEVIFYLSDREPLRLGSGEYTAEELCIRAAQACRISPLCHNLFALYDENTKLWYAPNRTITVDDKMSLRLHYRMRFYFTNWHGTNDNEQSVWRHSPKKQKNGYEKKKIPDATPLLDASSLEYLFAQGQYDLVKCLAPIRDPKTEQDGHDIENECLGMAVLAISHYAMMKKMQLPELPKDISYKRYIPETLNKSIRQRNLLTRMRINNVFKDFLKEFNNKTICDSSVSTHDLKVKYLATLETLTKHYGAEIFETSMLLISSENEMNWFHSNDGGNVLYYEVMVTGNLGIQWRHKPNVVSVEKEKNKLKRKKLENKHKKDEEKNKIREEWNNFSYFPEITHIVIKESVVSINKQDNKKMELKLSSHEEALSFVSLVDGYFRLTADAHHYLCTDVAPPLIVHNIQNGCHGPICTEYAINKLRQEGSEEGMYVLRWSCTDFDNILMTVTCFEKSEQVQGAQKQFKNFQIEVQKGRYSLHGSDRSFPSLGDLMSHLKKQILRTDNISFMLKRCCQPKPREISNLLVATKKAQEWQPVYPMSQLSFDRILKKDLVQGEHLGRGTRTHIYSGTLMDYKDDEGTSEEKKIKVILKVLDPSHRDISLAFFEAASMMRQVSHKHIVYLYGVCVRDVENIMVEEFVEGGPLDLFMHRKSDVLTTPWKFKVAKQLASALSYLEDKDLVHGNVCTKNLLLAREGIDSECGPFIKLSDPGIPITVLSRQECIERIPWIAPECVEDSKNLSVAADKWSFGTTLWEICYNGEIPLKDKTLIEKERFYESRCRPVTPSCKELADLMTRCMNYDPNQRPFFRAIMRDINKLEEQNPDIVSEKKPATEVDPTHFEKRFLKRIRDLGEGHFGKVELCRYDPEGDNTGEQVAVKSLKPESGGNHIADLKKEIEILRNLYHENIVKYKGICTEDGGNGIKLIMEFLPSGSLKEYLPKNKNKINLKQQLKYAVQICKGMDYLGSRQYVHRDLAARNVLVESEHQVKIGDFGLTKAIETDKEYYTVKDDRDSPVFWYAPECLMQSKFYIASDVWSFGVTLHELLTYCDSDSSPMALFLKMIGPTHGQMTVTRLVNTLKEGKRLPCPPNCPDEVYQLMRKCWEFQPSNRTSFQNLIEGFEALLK
Method: as §1, §2, §3, §4

Caco-2 cell monolayers = test: Caco-2 permeation assay; format: in vitro ADME, human; settings: 5 μM, A to B, + Verapamil 25 μM, 120 minutes
Text: Assay 5: Caco-2 Permeation Assay

JAK3 = JAK3 (Homo sapiens (Human), UniProt P52333); test: Biochemical JAK and Tyk2 kinase assays (LanthaScreen): JAK3; settings: for Ki / JAK 3 (pKi): 1 h pre-incubation, ATP at Km, pIC50 converted to pKi by Cheng-Prusoff; for Ki: read-out: JAK 3 (pKi) (converted); for JAK3 (pKi)-JAK1 (pKi): difference of pKi values, selectivity JAK3 over JAK1
Chain of JAK3 (P52333 whole entry): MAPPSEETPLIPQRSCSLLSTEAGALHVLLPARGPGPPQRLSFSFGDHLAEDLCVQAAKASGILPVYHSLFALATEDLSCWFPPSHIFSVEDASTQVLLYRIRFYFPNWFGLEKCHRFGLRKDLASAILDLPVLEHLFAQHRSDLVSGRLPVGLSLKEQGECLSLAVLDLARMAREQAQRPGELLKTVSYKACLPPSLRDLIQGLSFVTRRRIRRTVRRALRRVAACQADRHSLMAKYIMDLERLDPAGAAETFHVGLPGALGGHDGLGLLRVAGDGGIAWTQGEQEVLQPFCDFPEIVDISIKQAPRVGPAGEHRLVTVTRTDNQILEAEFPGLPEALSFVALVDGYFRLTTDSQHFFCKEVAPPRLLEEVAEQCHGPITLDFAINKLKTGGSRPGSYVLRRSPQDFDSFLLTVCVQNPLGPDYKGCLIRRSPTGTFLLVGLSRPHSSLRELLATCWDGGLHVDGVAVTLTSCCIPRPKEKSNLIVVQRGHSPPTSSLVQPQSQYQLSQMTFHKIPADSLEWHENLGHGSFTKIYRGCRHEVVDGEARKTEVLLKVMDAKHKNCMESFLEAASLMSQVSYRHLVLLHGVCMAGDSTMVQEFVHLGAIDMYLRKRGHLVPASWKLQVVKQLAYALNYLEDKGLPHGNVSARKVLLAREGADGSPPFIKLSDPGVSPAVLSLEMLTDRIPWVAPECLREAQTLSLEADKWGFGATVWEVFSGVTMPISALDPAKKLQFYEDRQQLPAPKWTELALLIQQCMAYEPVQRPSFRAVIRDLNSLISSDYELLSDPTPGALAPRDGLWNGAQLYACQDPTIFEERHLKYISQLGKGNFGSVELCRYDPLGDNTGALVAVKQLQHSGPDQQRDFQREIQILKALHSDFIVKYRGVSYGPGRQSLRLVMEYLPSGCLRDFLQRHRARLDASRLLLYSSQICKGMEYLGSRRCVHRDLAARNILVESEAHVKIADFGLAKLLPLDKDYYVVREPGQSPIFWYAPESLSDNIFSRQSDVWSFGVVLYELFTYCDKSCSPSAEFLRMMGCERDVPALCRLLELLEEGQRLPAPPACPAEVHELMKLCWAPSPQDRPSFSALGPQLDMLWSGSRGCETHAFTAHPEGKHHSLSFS
Method: as §1, §2, §3, §4

[2] = test system: IL-2 stimulated pSTAT5 in CD4+ T cells isolated from murine splenocytes (JAK3); test: Inhibition of IL-2 stimulated pSTAT5 in CD4+ T cells isolated from murine splenocytes; format: cell-based; settings: Mus musculus, IL-2 7 ng/ml, read-out: pIC50, inhibition of IL-2 stimulated pSTAT5 (converted)
Method: Assay 3: Inhibition of IL-2 Stimulated pSTAT5 in CD4+ T Cells Isolated from Murine Splenocytes
The potency of test compounds for inhibition of interleukin-2 (IL-2) stimulated STATS phosphorylation was measured in the CD4+ T cells isolated from murine splenocytes using AlphaLisa. Because IL-2 signals through JAK3, this assay provides a measure of JAK3 cellular potency in mouse.
as §5
CD4+ T cells were isolated from murine splenocytes via negative selection on a magnetic column (Miltnyi Biotec) and re-suspended in assay media (phenol red-free DMEM (Life Technologies) supplemented with 10% FBS (ATCC)). Cells were seeded at 50,000 cells/well in assay media (2 μL/well). Compounds were serially diluted in DMSO and diluted to 2× final concentration in assay media. Compound was added (4 μl/well) and the cells incubated at 37° C., 5% CO2 for 1 hour, followed by the addition of IL-2 (R&D Systems; final concentration 7 ng/ml) in pre-warmed assay media (2 μL) for 30 minutes. After cytokine stimulation, cells were lysed with 2 μl of 5× AlphaLisa Lysis Buffer (PerkinElmer). The lysate was shaken at 900 rpm for 10 minutes at room temperature (RT). Phosphorylated STATS was measured via the pSTAT5 AlphaLisa kit (PerkinElmer). Freshly prepared acceptor bead mixture was dispensed onto lysate (5 ul) under green filtered <100 lux light. Plates were shaken at 900 rpm for 2 mins, briefly spun down, and incubated for 2 hrs at RT in the dark. Donor beads were dispensed (5 μl) under green filtered <100 lux light. Plates were shaken at 900 rpm for 2 mins, briefly spun down, and incubated overnight at RT in the dark. Luminescence was measured with excitation at 689 nm and emission at 570 nm using an EnVision plate reader (PerkinElmer) under green filtered <100 lux light.
as §6, with “pSTATS” for “pSTAT5”, “primary CD4+” for “a human”, “cells isolated from murine splenocytes.” for “cell line.”, “vs” for “versus”

Chain of Tyk2 (P29597 whole entry): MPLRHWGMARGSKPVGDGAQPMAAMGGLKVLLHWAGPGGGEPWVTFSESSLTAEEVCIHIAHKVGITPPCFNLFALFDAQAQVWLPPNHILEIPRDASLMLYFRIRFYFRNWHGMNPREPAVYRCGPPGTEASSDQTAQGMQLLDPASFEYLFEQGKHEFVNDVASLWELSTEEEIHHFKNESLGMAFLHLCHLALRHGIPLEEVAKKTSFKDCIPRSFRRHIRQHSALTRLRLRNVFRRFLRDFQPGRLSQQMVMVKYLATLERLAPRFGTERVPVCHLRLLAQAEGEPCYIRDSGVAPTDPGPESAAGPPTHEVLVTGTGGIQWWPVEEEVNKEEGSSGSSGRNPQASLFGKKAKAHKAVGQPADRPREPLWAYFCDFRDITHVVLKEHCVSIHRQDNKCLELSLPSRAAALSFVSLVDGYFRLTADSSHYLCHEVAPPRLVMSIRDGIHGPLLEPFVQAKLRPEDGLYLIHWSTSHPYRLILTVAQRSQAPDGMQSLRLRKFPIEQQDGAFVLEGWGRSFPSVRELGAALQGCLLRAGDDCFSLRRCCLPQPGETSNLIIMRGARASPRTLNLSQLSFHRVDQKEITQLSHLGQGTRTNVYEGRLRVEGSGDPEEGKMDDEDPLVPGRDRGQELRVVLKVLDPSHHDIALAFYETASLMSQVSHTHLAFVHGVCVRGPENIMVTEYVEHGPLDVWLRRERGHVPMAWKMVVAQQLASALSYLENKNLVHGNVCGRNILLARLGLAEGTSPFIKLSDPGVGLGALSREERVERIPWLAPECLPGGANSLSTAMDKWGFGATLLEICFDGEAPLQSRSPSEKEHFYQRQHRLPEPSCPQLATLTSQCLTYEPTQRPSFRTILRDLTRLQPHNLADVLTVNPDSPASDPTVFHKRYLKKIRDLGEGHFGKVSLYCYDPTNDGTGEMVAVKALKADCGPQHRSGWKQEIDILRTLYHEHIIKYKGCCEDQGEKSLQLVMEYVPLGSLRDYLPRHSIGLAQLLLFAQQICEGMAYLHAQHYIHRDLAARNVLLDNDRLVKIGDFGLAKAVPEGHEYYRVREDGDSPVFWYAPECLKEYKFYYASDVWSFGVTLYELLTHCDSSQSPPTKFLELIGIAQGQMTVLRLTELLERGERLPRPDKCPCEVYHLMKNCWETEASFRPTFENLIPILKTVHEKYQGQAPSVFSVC

Row | SMILES | Tyk 2 (pKi) (Tyk2) | JAK 2 (pKi) (JAK2) | IC50 [1] [nM] | JAK 1 (pKi) (JAK1) | Caco Kp 10^−6 cm/sec (Caco-2 cell monolayers) | Ki (JAK3) [nM] | JAK3 (pKi)-JAK1 (pKi) (JAK3) | IC50 [2] [nM] | Ki (JAK2; read-out: JAK 2 (pKi) (converted)) [nM] | JAK 3 (pKi) (JAK3)
1 | C=CC(=O)N1CCC(COc2cc(-c3ccc(O)cc3)cn3cncc23)CC1 [Example 2, 1-(4-(((6-(4-hydroxyphenyl)imidazo[1,5-a]pyridin-8-yl)oxy)methyl)piperidin-1-yl)prop-2-en-1-one] | E (E represents a pKi value of 7 or below (Ki of 100 nM or above)) | E (E represents a pKi value of 7 or below (Ki of 100 nM or above)) | 200 to 1000 | E (E represents a pKi value of 7 or below (Ki of 100 nM or above)) | C (C represents a value between 10×10^−6 and 25×10^−6 cm/sec) | 0.1 to 1 | A (A represents a value of 3 or above) |  |  | 
2 | C=CC(=O)N1CC(COc2nc(-c3ccc(O)cc3)cn3cncc23)C1 [Example 6, 1-(3-(((6-(4-hydroxyphenyl)imidazo[1,5-a]pyrazin-8-yl)oxy)methyl)azetidin-1-yl)prop-2-en-1-one] | E (E represents a pKi value of 7 or below (Ki of 100 nM or above)) | E (E represents a pKi value of 7 or below (Ki of 100 nM or above)) | 31.6 to 200 | E (E represents a pKi value of 7 or below (Ki of 100 nM or above)) | B (B represents a value between 5×10^−6 and 10×10^−6 cm/sec) | 0.1 to 1 | A (A represents a value of 3 or above) |  |  | 
3 | C=CC(=O)N1CC(COc2cc(-c3c(F)cc(O)cc3F)cn3cncc23)C1 [Example 7, 1-(3-(((6-(2,6-difluoro-4-hydroxyphenyl)imidazo[1,5-a]pyridin-8-yl)oxy)methyl)azetidin-1-yl)prop-2-en-1-one] | E (E represents a pKi value of 7 or below (Ki of 100 nM or above)) | E (E represents a pKi value of 7 or below (Ki of 100 nM or above)) | 31.6 to 200 | E (E represents a pKi value of 7 or below (Ki of 100 nM or above)) | B (B represents a value between 5×10^−6 and 10×10^−6 cm/sec) | 0.1 to 1 | A (A represents a value of 3 or above) | < 1000 |  | 
4 | C=CC(=O)N1CCC(Oc2cc(-c3ccc(O)cc3)cn3cncc23)C(F)(F)C1 (centres unmarked) [Example 14, 1-(3,3-difluoro-4-((6-(4-hydroxyphenyl)imidazo[1,5-a]pyridin-8-yl)oxy)piperidin-1-yl)prop-2-en-1-one] | E (E represents a pKi value of 7 or below (Ki of 100 nM or above)) |  | ≤ 31.6 | E (E represents a pKi value of 7 or below (Ki of 100 nM or above)) | B (B represents a value between 5×10^−6 and 10×10^−6 cm/sec) |  | A (A represents a value of 3 or above) |  | 10 to 100 | A (A represents a pKi value≥10 (Ki≤0.1 nM))
5 | C=CC(=O)N1CC(COc2cc(-c3ccc(O)cc3CC)cn3cncc23)C1 [Example 21] | E (E represents a pKi value of 7 or below (Ki of 100 nM or above)) | E (E represents a pKi value of 7 or below (Ki of 100 nM or above)) | 31.6 to 200 | E (E represents a pKi value of 7 or below (Ki of 100 nM or above)) | B (B represents a value between 5×10^−6 and 10×10^−6 cm/sec) | 0.1 to 1 | A (A represents a value of 3 or above) |  |  | 
6 | C=CC(=O)N1CC(COc2cc(-c3cc(Cl)c(O)c(Cl)c3)cn3cncc23)C1 [Example 33] |  |  | 31.6 to 200 | E (E represents a pKi value of 7 or below (Ki of 100 nM or above)) | A (A represents a value below 5×10^−6 cm/sec) |  | A (A represents a value of 3 or above) |  |  | A (A represents a pKi value≥10 (Ki≤0.1 nM))
7 | C=CC(=O)N1CC[C@@H](Oc2cc(-c3ccc(O)cc3)cn3cncc23)[C@@H](C)C1 [Example 41] | E (E represents a pKi value of 7 or below (Ki of 100 nM or above)) | E (E represents a pKi value of 7 or below (Ki of 100 nM or above)) | 31.6 to 200 | E (E represents a pKi value of 7 or below (Ki of 100 nM or above)) |  |  | A (A represents a value of 3 or above) |  |  | A (A represents a pKi value≥10 (Ki≤0.1 nM))
8 | C=CC(=O)N1CC(COc2cc(-c3ccc(O)cc3C)cn3cncc23)C1 [Example 44] | E (E represents a pKi value of 7 or below (Ki of 100 nM or above)) | E (E represents a pKi value of 7 or below (Ki of 100 nM or above)) | 31.6 to 200 | E (E represents a pKi value of 7 or below (Ki of 100 nM or above)) |  | 0.1 to 1 | A (A represents a value of 3 or above) |  |  | 
